Measurements as given in publication PMC8819291, “Adaptively evolved human oral actinomyces‐sourced defensins show therapeutic potential” (EMBO Molecular Medicine, 2021).
Where a SMILES comes first, the peptide text is derived from it.

Columns and labels:
SP D39 = experiment: Mouse lung infection model
Procedure: To this end, ICR female mice (30 g each mouse; 9–10 weeks of age) were anesthetized with 1.25% 2,2,2‐Tribromoethanol (Avertin) (Macklin, Shanghai, China) and hung by their front teeth on a steel wire. Then, they were inoculated intranasally with 10–20 µl bacterial suspension of SP D39 of fresh overnight culture (1.5 × 10^6 CFU per mouse) and then were removed from the wire to their cages. A control group of untreated mice was included. […] Mice were treated with penicillin as a positive control. At 48 h post‐infection, the mice were sacrificed and lungs removed and homogenized in 0.9% saline. Colony counts from lung homogenates were determined and the total number of colonies/lungs per mouse was calculated. Schematic representation is provided in Appendix Fig S16B.

[1] = system: fresh erythrocytes from the female ICR mice; experiment: Hemolysis assay; type: cell-based, Mus musculus; details: 25 μM
Procedure: Hemolytic activity of peptides against fresh erythrocytes from the female ICR mice (Mus musculus) (25 g, 6 weeks of age) was assayed according to the standard method (Zhu et al, [2012]). Peptides were diluted with 0.9% NaCl to the indicated concentration. The percentage of hemolysis is determined as (A pep–A blank)/(A tot–A blank) × 100, in which “A” represents absorbance measured at 570 nm. A blank and A pep were evaluated in the absence or presence of peptides. One hundred percent hemolysis (A tot) was obtained in the presence of 1% Triton X‐100.

[2] = Bioaffinity ESI-MS with UMP; type: binding, Staphylococcus aureus; details: 25 mM ammonium acetate (pH5.2)
Procedure: All components for interactions were dissolved in 25 mM ammonium acetate (pH5.2). Electrospray spectra were recorded with Waters SynaptG2‐Si mass spectrometer (Waters, Manchester, UK) and measurements were performed with positive ESI in resolution mode. Ions were scanned in a mass range of 500–2,000 m/z with the following conditions: the capillary voltage at 1,500 V; the cone voltage at 40 V; the source block temperature at 30°C. Spectra were recorded and processed by the software Masslynx4.1 (Waters, Manchester, UK).

MRSA P1374 = experiment: Cytoplasmic accumulation of UMP; type: cell-based, Staphylococcus aureus; details: 20 × C L, 30 min; RP-HPLC, UV 260 nm
Procedure: To analyze the cytoplasmic nucleotide pool, we carried out the cytoplasmic UMP accumulation experiment according to the literature (Brötz et al, [1997]) with some modifications. MRSA P1374 cells were grown in 40‐ml broth medium at 37°C to an OD600 of 0.5. The culture was supplemented with 130 μg/ml chloramphenicol. […] After 30 min of incubation, UMP was extracted from the harvested cells by stirring them into boiling water. The suspension was then centrifuged (43,000 g, 60 min) at 4°C and the supernatant was lyophilized and dissolved in 400 μl of 50 mM ammonium acetate (pH 5.2) and adjusted to pH 2.0 with acetic acid. After acidification, the supernatant was fractionated by RP‐HPLC on Hypersil ODS (250 × 4.6 mm; Thermo Scientific) and UMP was eluted from the column with a linear gradient from 0 to 40% methanol in 50 mM NH4Ac (pH 5.2) within 40 min with a flow rate of 1 ml/min. UV absorbance was monitored at 260 nm. UMP was identified by ultraperformance liquid chromatography–high resolution mass spectrometry (UPLC‐HRMS) and MALDI‐TOF. Both methods yielded consistent results.

[3] = system: BM cells (Bacillus megaterium); experiment: Scanning electron microscope observation of cell deformation; type: cell-based; details: 10 × C L, 37°C, 90 min
Procedure: After centrifugation, bacterial pellets were fixed with 2.5% glutaraldehyde for 1 h, followed by washing three times with PBS buffer (pH 7.3). Dehydration was carried out with a series of graded ethanol solutions. Cells were then dried by BAL‐TEC CPD‐030 critical point dryer (Bal‐Tec AG, Balzers, Liechtenstein) before being mounted on carbon tape and sputtered with a gold coating (BAL‐TEC SCD005). Images were visualized in FEI QUANTA 450.

[4] = Circular dichroism spectroscopy with UMP; type: binding; details: 50 mM NH4OAc, room temperature
Procedure: The spectra were measured at room temperature from 300 to 200 nm by using a quartz cell of 1.0 mm thickness. Data were collected at 1‐nm intervals with a scan rate of 2 nm/s.

HL‐60 = experiment: Cytotoxicity assay (CCK-8); type: cell-based, human; details: 72 h
Procedure: Cells were cultured at 37°C in 5% CO2: 95% air incubator in Minimum Essential Medium (MEM) supplemented with 10% (v/v) fetal bovine serum (FBS). Cells were seeded at a density of 7 × 10^3 cells per well in 96‐well plates and incubated for 24 h. Media were then replaced with 200 μl of media containing various concentrations of peptides. The cells were incubated for 72 h and cytotoxicity was assessed with CCK‐8 Kits (Dojindo Molecular Technologies, Tokyo, Japan). Absorbance was detected at 450 nm with the TECAN Infinite M200 microplate reader (Tecan, Durham, USA).

A549 cells = experiment: Peptide-induced IL-8 release (ELISA); type: cell-based, human; details: 24 h
Procedure: (§1) A549 and HL‐60 cells were purchased from the Cell Resource Center of the Chinese Academy of Medical Sciences (Beijing, China). They were tested for mycoplasma contamination with the Mycoplasma Detection Kit (Solarbio, China) and only negative cultures were used in our experiments. The cells were cultured in complete Dulbecco’s Modified Eagle Medium (DMEM) supplemented with 10% fetal bovine serum (FBS), penicillin (100 units/ml), and streptomycin ([…]) at 37°C in 5% CO2. The culture medium was changed every 2 days. Cells were passaged every 4–5 days with 0.25% trypsin (Gibco, USA). For enzyme‐linked immunosorbent assay (ELISA) (Hara et al, [2008]), A549 or HL‐60 cells were seeded in six‐well plates at a density of 1 × 10^5 cells/well and were incubated at 37°C in 5% CO2 overnight. Medium was aspirated and replaced with fresh complete DMEM supplemented with 10% FBS or serum‐free medium, both containing different concentrations of polypeptides for 24 h. Then, the supernatants were harvested for quantification of the IL‐8 amount in A549 by the Human CXCL8/IL‐8 Quantikine ELISA Kit (R&D Systems Inc., Minneapolis, MN, USA) and the MCP‐1 amount in HL‐60 by the Human MCP‐1 ELISA Kit (Boster Biological Technology Co., Ltd, Wuhan, China) as per the manufactures’ instructions.

HL‐60 cells = experiment: Peptide-induced MCP-1 release (ELISA); type: cell-based, human; details: 24 h
Procedure: as §1

[5] = FBS-containing medium, 25 μg/mL, replicate 1
[6] = FBS-containing medium, 25 μg/mL, replicate 2
[7] = FBS-containing medium, 25 μg/mL, replicate 3
[8] = FBS-containing medium, 50 μg/mL, replicate 1
[9] = FBS-containing medium, 50 μg/mL, replicate 2
[10] = FBS-containing medium, 50 μg/mL, replicate 3
[11] = FBS-containing medium, 100 μg/mL, replicate 1
[12] = FBS-containing medium, 100 μg/mL, replicate 2
[13] = FBS-containing medium, 100 μg/mL, replicate 3
[14] = Serum-Free medium, 25 μg/mL, replicate 1
[15] = Serum-Free medium, 25 μg/mL, replicate 2
[16] = Serum-Free medium, 25 μg/mL, replicate 3
[17] = Serum-Free medium, 50 μg/mL, replicate 1
[18] = Serum-Free medium, 50 μg/mL, replicate 2
[19] = Serum-Free medium, 50 μg/mL, replicate 3
[20] = Serum-Free medium, 100 μg/mL, replicate 1
[21] = Serum-Free medium, 100 μg/mL, replicate 2
[22] = Serum-Free medium, 100 μg/mL, replicate 3

penicillin [reference compound]
Log10 (CFU per lung) (SP D39; 8.35 mg/kg i.m. 24 h after intranasal SP D39, lungs at 48 h post‐infection, animal 1): 3.6 Log10 (CFU per lung)
Log10 (CFU per lung) (SP D39; 8.35 mg/kg i.m., animal 2): 4.3 Log10 (CFU per lung)
Log10 (CFU per lung) (SP D39; 8.35 mg/kg i.m., animal 3): 3.23 Log10 (CFU per lung)
Log10 (CFU per lung) (SP D39; 8.35 mg/kg i.m., animal 4): 3.28 Log10 (CFU per lung)
Log10 (CFU per lung) (SP D39; 8.35 mg/kg i.m., animal 5): 3.3 Log10 (CFU per lung)
Log10 (CFU per lung) (SP D39; 16.7 mg/kg i.m., animal 1): 1.3 Log10 (CFU per lung)
Log10 (CFU per lung) (SP D39; 16.7 mg/kg i.m., animal 2): 1.48 Log10 (CFU per lung)
Log10 (CFU per lung) (SP D39; 16.7 mg/kg i.m., animal 3): 1.3 Log10 (CFU per lung)
Log10 (CFU per lung) (SP D39; 16.7 mg/kg i.m., animal 4): 4.2 Log10 (CFU per lung)
Log10 (CFU per lung) (SP D39; 16.7 mg/kg i.m., animal 5): 4.68 Log10 (CFU per lung)
Log10 (CFU per lung) (SP D39; 30 mg/kg i.m., animal 1): 3 Log10 (CFU per lung)
Log10 (CFU per lung) (SP D39; 30 mg/kg i.m., animal 2): 1 Log10 (CFU per lung)
Log10 (CFU per lung) (SP D39; 30 mg/kg i.m., animal 3): 2.63 Log10 (CFU per lung)
Log10 (CFU per lung) (SP D39; 30 mg/kg i.m., animal 4): 1 Log10 (CFU per lung)
Log10 (CFU per lung) (SP D39; 30 mg/kg i.m., animal 5): 1 Log10 (CFU per lung)

CC[C@H](C)[C@H](NC(=O)[C@H](CCCCN)NC(=O)[C@@H](NC(=O)[C@H](C)NC(=O)[C@H](CC(C)C)NC(=O)[C@H](CCCCN)NC(=O)[C@H](Cc1ccccc1)NC(=O)[C@H](CC(C)C)NC(=O)[C@H](Cc1cnc[nH]1)NC(=O)CNC(=O)[C@H](Cc1ccccc1)NC(=O)[C@@H](N)Cc1ccccc1)[C@@H](C)O)C(=O)N[C@H](C(=O)N1CCC[C@H]1C(=O)N[C@@H](CO)C(=O)N[C@@H](CC(C)C)C(=O)N[C@@H](Cc1ccccc1)C(=O)N[C@@H](CCC(N)=O)C(=O)O)[C@@H](C)CC [Meucin-18, reference compound] (H-FFGHLFKLATKIIPSLFQ-OH)
Hemolysis (%) ([1]; technical replicate 1): 91.54%
Hemolysis (%) ([1]; technical replicate 2): 95.84%
Hemolysis (%) ([1]; technical replicate 3): 92.43%

drosomycin: a specific antifungal defensin (DCLSGRYKGPCAVWDNETCRRVCKEEGRSSGHCSPSLKCWCEGC; UniProt P41964 27-70, looked up)
Non-covalent complex with UMP by ESI-MS [2]: not

CN[C@H](CC(C)C)C(=O)N[C@H]1C(=O)N[C@@H](CC(N)=O)C(=O)N[C@H]2C(=O)N[C@H]3C(=O)N[C@H](C(=O)N[C@H](C(=O)O)c4cc(O)cc(O)c4-c4cc3ccc4O)[C@H](O)c3ccc(c(Cl)c3)Oc3cc2cc(c3O[C@@H]2O[C@H](CO)[C@@H](O)[C@H](O)[C@H]2O[C@H]2C[C@](C)(N)[C@H](O)[C@H](C)O2)Oc2ccc(cc2Cl)[C@H]1O [vancomycin, reference compound]
Cytoplasmic accumulation of UMP (MRSA P1374): accumulated
Non-covalent complex with UMP by ESI-MS [2]: complex formation
Cell shape by scanning electron microscopy [3]: deformation of the cell shape
Complex with UMP by CD absorption signatures [4]: a complex was formed

LL-37: the human AMP with immunomodulatory properties, chemically synthesized, positive control [reference compound]
Cellular variability of HL-60 (%) (HL‐60; 25 μg/mL, replicate 1): 95%
Cellular variability of HL-60 (%) (HL‐60; 25 μg/mL, replicate 2): 96%
Cellular variability of HL-60 (%) (HL‐60; 25 μg/mL, replicate 3): 103%
Cellular variability of HL-60 (%) (HL‐60; 50 μg/mL, replicate 1): 57%
Cellular variability of HL-60 (%) (HL‐60; 50 μg/mL, replicate 2): 56%
Cellular variability of HL-60 (%) (HL‐60; 50 μg/mL, replicate 3): 64%
Cellular variability of HL-60 (%) (HL‐60; 100 μg/mL, replicate 1): 25%
Cellular variability of HL-60 (%) (HL‐60; 100 μg/mL, replicate 2): 25%
Cellular variability of HL-60 (%) (HL‐60; 100 μg/mL, replicate 3): 26%
IL-8 (A549 cells; [5]): 172 pg/mL
IL-8 (A549 cells; [6]): 166 pg/mL
IL-8 (A549 cells; [7]): 172 pg/mL
IL-8 (A549 cells; [8]): 156 pg/mL
IL-8 (A549 cells; [9]): 129 pg/mL
IL-8 (A549 cells; [10]): 155 pg/mL
IL-8 (A549 cells; [11]): 173 pg/mL
IL-8 (A549 cells; [12]): 195 pg/mL
IL-8 (A549 cells; [13]): 192 pg/mL
IL-8 (A549 cells; [14]): 57 pg/mL
IL-8 (A549 cells; [15]): 41 pg/mL
IL-8 (A549 cells; [16]): 47 pg/mL
IL-8 (A549 cells; [17]): 66 pg/mL
IL-8 (A549 cells; [18]): 57 pg/mL
IL-8 (A549 cells; [19]): 78 pg/mL
IL-8 (A549 cells; [20]): 133 pg/mL
IL-8 (A549 cells; [21]): 122 pg/mL
IL-8 (A549 cells; [22]): 116 pg/mL
MCP-1 (HL‐60 cells; [5]): 486 pg/mL
MCP-1 (HL‐60 cells; [6]): 414 pg/mL
MCP-1 (HL‐60 cells; [7]): 465 pg/mL
MCP-1 (HL‐60 cells; [8]): 538 pg/mL
MCP-1 (HL‐60 cells; [9]): 514 pg/mL
MCP-1 (HL‐60 cells; [10]): 517 pg/mL
MCP-1 (HL‐60 cells; [11]): 545 pg/mL
MCP-1 (HL‐60 cells; [12]): 571 pg/mL
MCP-1 (HL‐60 cells; [13]): 524 pg/mL
MCP-1 (HL‐60 cells; [14]): 431 pg/mL
MCP-1 (HL‐60 cells; [15]): 519 pg/mL
MCP-1 (HL‐60 cells; [16]): 410 pg/mL
MCP-1 (HL‐60 cells; [17]): 583 pg/mL
MCP-1 (HL‐60 cells; [18]): 543 pg/mL
MCP-1 (HL‐60 cells; [19]): 562 pg/mL
MCP-1 (HL‐60 cells; [20]): 459 pg/mL
MCP-1 (HL‐60 cells; [21]): 565 pg/mL
MCP-1 (HL‐60 cells; [22]): 438 pg/mL
